System: mice bearing PSMA-expressing LNCAP cancer xenografts
Assay: Biodistribution of 68Ga-labeled compounds
Type: in vivo
Procedure: Imaging and biodistribution experiments were performed using NODSCID 1L2RyKO male mice. Mice were anesthetized by inhalation with 2% isoflurane in oxygen, and implanted subcutaneously with 1×10^7 LNCaP cells behind left shoulder. Mice were imaged or used in biodistribution studies when the tumor grew up to reach 5-8 mm in diameter during 5-6 weeks.
For biodistribution studies, the mice were injected with the radiotracer as described above. At predetermined time points (1 or 3 h), the mice was anesthetized with 2% isoflurane inhalation, and euthanized by CO2 inhalation. Blood was withdrawn immediately from the heart, and the organs/tissues of interest were collected. The collected organs/tissues were weighed and counted using an automatic gamma counter. The uptake in each organ/tissue was normalized to the injected dose using a standard curve, and expressed as the percentage of the injected dose per gram of tissue (% ID/g).

With `O=C([O-])CN1CCN(CC(=O)[O-])CCN(CC(=O)NCCCC[C@H](NC(=O)CNC(=O)CCCc2ccc(I)cc2)C(=O)NC[C@H]2CC[C@H](C(=O)N[C@@H](Cc3ccc4ccccc4c3)C(=O)NCCCC[C@H](NC(=O)N[C@@H](CCC(=O)O)C(=O)O)C(=O)O)CC2)CCN(CC(=O)[O-])CC1.[68Ga+3]` [^68Ga-HTK03024] as the molecule, how does the Adrenal glands uptake (1 h post-injection) read?
Its Adrenal glands uptake is 4.32 ± 0.25 % ID/g.

And the Blood uptake (1 h post-injection)?
The Blood uptake was 27.0 ± 5.63 % ID/g.

And the Bone uptake (1 h post-injection)?
Its Bone uptake is 1.26 ± 0.08 % ID/g.

What about the Brain uptake (1 h post-injection) of the same molecule?
The Brain uptake was 0.31 ± 0.04 % ID/g.

What about the Fat uptake (1 h post-injection) of the same molecule?
Its Fat uptake is 1.83 ± 0.44 % ID/g.

And the Heart uptake (1 h post-injection)?
The Heart uptake was 6.53 ± 1.30 % ID/g.

And the Intestine uptake (1 h post-injection)?
Its Intestine uptake is 1.86 ± 0.06 % ID/g.

What about the Kidneys uptake (1 h post-injection) of the same molecule?
The Kidneys uptake was 9.11 ± 1.06 % ID/g.

What about the Lacrimal uptake (1 h post-injection) of the same molecule?
The Lacrimal uptake was 0.93 ± 0.36 % ID/g.

And the Liver uptake (1 h post-injection)?
Its Liver uptake is 3.71 ± 0.38 % ID/g.

And the Lungs uptake (1 h post-injection)?
Its Lungs uptake is 9.51 ± 0.55 % ID/g.

And the Muscle uptake (1 h post-injection)?
The Muscle uptake was 1.10 ± 0.18 % ID/g.

What about the Pancreas uptake (1 h post-injection) of the same molecule?
The Pancreas uptake was 1.86 ± 0.04 % ID/g.

And the Salivary uptake (1 h post-injection)?
The Salivary uptake was 3.31 ± 0.79 % ID/g.

What about the Seminal uptake (1 h post-injection) of the same molecule?
Its Seminal uptake is 1.27 ± 0.18 % ID/g.

And the Spleen uptake (1 h post-injection)?
The Spleen uptake was 2.72 ± 0.69 % ID/g.

What about the Stomach uptake (1 h post-injection) of the same molecule?
The Stomach uptake was 0.64 ± 0.05 % ID/g.

And the Tail uptake (1 h post-injection)?
The Tail uptake was 7.58 ± 4.49 % ID/g.

What about the Testes uptake (1 h post-injection) of the same molecule?
Its Testes uptake is 2.98 ± 0.30 % ID/g.

And the Thyroid uptake (1 h post-injection)?
Its Thyroid uptake is 4.39 ± 0.01 % ID/g.

And the Tumor uptake (1 h post-injection)?
Its Tumor uptake is 7.34 ± 0.10 % ID/g.

What about the “Tumor:Blood ratio” value (1 h post-injection) of the same molecule?
Its value is 0.28 ± 0.05.

What about the “Tumor:Muscle ratio” value (1 h post-injection) of the same molecule?
The value was 6.74 ± 1.00.

And the “Tumor:kidney ratio” value (1 h post-injection)?
Its value is 0.81 ± 0.11.

And the Urine uptake (1 h post-injection)?
Its Urine uptake is 1.48 ± 0.71 % ID/g.

And the Adrenal glands uptake (3 h post-injection)?
Its Adrenal glands uptake is 6.37 ± 1.54 % ID/g.

And the Blood uptake (3 h post-injection)?
The Blood uptake was 23.9 ± 1.03 % ID/g.

What about the Bone uptake (3 h post-injection) of the same molecule?
The Bone uptake was 1.66 ± 0.39 % ID/g.

What about the Brain uptake (3 h post-injection) of the same molecule?
The Brain uptake was 0.34 ± 0.02 % ID/g.

What about the Fat uptake (3 h post-injection) of the same molecule?
Its Fat uptake is 3.53 ± 1.48 % ID/g.

And the Heart uptake (3 h post-injection)?
Its Heart uptake is 5.56 ± 0.43 % ID/g.

What about the Intestine uptake (3 h post-injection) of the same molecule?
The Intestine uptake was 1.66 ± 0.14 % ID/g.

And the Kidneys uptake (3 h post-injection)?
Its Kidneys uptake is 12.3 ± 0.86 % ID/g.

And the Lacrimal uptake (3 h post-injection)?
Its Lacrimal uptake is 3.57 ± 1.56 % ID/g.

What about the Liver uptake (3 h post-injection) of the same molecule?
The Liver uptake was 3.86 ± 0.63 % ID/g.

And the Lungs uptake (3 h post-injection)?
Its Lungs uptake is 11.6 ± 0.82 % ID/g.

And the Muscle uptake (3 h post-injection)?
The Muscle uptake was 1.55 ± 0.15 % ID/g.

And the Pancreas uptake (3 h post-injection)?
Its Pancreas uptake is 1.86 ± 0.20 % ID/g.

What about the Salivary uptake (3 h post-injection) of the same molecule?
The Salivary uptake was 4.66 ± 0.58 % ID/g.

And the Seminal uptake (3 h post-injection)?
Its Seminal uptake is 1.63 ± 0.13 % ID/g.

What about the Spleen uptake (3 h post-injection) of the same molecule?
The Spleen uptake was 2.62 ± 0.93 % ID/g.

What about the Stomach uptake (3 h post-injection) of the same molecule?
The Stomach uptake was 0.70 ± 0.10 % ID/g.

And the Tail uptake (3 h post-injection)?
Its Tail uptake is 4.03 ± 0.43 % ID/g.

And the Testes uptake (3 h post-injection)?
The Testes uptake was 3.07 ± 0.20 % ID/g.

What about the Thyroid uptake (3 h post-injection) of the same molecule?
Its Thyroid uptake is 4.19 ± 0.48 % ID/g.

What about the Tumor uptake (3 h post-injection) of the same molecule?
The Tumor uptake was 15.0 ± 2.19 % ID/g.

And the “Tumor:Blood ratio” value (3 h post-injection)?
The value was 0.63 ± 0.11.

And the “Tumor:Muscle ratio” value (3 h post-injection)?
The value was 9.69 ± 1.51.

And the “Tumor:kidney ratio” value (3 h post-injection)?
The value was 1.21 ± 0.10.

And the Urine uptake (3 h post-injection)?
Its Urine uptake is 3.68 ± 1.74 % ID/g.

How did the Adrenal glands uptake (1 h post-injection) turn out when `Nc1ccc(CCCC(=O)NCC(=O)N[C@@H](CCCCNC(=O)CN2CCN(CC(=O)[O-])CCN(CC(=O)[O-])CCN(CC(=O)[O-])CC2)C(=O)NC[C@H]2CC[C@H](C(=O)N[C@@H](Cc3ccc4ccccc4c3)C(=O)NCCCC[C@H](NC(=O)N[C@@H](CCC(=O)O)C(=O)O)C(=O)O)CC2)cc1.[68Ga+3]` [^68Ga-HTK03087] was run?
The Adrenal glands uptake was 2.95 ± 0.92 % ID/g.

What about the Blood uptake (1 h post-injection) of the same molecule?
The Blood uptake was 1.74 ± 0.11 % ID/g.

And the Bone uptake (1 h post-injection)?
Its Bone uptake is 0.16 ± 0.02 % ID/g.

What about the Brain uptake (1 h post-injection) of the same molecule?
Its Brain uptake is 0.04 ± 0.01 % ID/g.

And the Fat uptake (1 h post-injection)?
Its Fat uptake is 0.77 ± 0.14 % ID/g.

What about the Heart uptake (1 h post-injection) of the same molecule?
Its Heart uptake is 0.52 ± 0.07 % ID/g.

And the Intestine uptake (1 h post-injection)?
The Intestine uptake was 0.32 ± 0.06 % ID/g.

And the Kidneys uptake (1 h post-injection)?
The Kidneys uptake was 102 ± 8.91 % ID/g.

And the Lacrimal uptake (1 h post-injection)?
Its Lacrimal uptake is 0.06 ± 0.05 % ID/g.

And the Liver uptake (1 h post-injection)?
The Liver uptake was 0.44 ± 0.06 % ID/g.

What about the Lungs uptake (1 h post-injection) of the same molecule?
Its Lungs uptake is 1.75 ± 0.09 % ID/g.

What about the Muscle uptake (1 h post-injection) of the same molecule?
Its Muscle uptake is 0.31 ± 0.05 % ID/g.

What about the Pancreas uptake (1 h post-injection) of the same molecule?
The Pancreas uptake was 0.45 ± 0.02 % ID/g.

What about the Salivary uptake (1 h post-injection) of the same molecule?
Its Salivary uptake is 1.76 ± 0.16 % ID/g.

What about the Seminal uptake (1 h post-injection) of the same molecule?
Its Seminal uptake is 2.40 ± 2.83 % ID/g.

What about the Spleen uptake (1 h post-injection) of the same molecule?
The Spleen uptake was 2.42 ± 0.79 % ID/g.

What about the Stomach uptake (1 h post-injection) of the same molecule?
The Stomach uptake was 0.14 ± 0.05 % ID/g.

And the Tail uptake (1 h post-injection)?
Its Tail uptake is 0.91 ± 0.12 % ID/g.

And the Testes uptake (1 h post-injection)?
Its Testes uptake is 0.48 ± 0.06 % ID/g.

What about the Thyroid uptake (1 h post-injection) of the same molecule?
Its Thyroid uptake is 0.74 ± 0.04 % ID/g.

And the Tumor uptake (1 h post-injection)?
Its Tumor uptake is 20.7 ± 3.79 % ID/g.

What about the “Tumor:Blood ratio” value (1 h post-injection) of the same molecule?
Its value is 11.9 ± 1.92.

What about the “Tumor:Muscle ratio” value (1 h post-injection) of the same molecule?
The value was 66.6 ± 9.63.

And the “Tumor:kidney ratio” value (1 h post-injection)?
The value was 0.20 ± 0.02.

And the Urine uptake (1 h post-injection)?
Its Urine uptake is 196 ± 50.9 % ID/g.

And the Adrenal glands uptake (3 h post-injection)?
The Adrenal glands uptake was 0.90 ± 0.36 % ID/g.

What about the Blood uptake (3 h post-injection) of the same molecule?
Its Blood uptake is 0.52 ± 0.08 % ID/g.

What about the Bone uptake (3 h post-injection) of the same molecule?
Its Bone uptake is 0.03 ± 0.03 % ID/g.

And the Brain uptake (3 h post-injection)?
Its Brain uptake is 0.01 ± 0.00 % ID/g.

What about the Fat uptake (3 h post-injection) of the same molecule?
Its Fat uptake is 0.40 ± 0.11 % ID/g.

And the Heart uptake (3 h post-injection)?
Its Heart uptake is 0.16 ± 0.03 % ID/g.

And the Intestine uptake (3 h post-injection)?
The Intestine uptake was 0.23 ± 0.10 % ID/g.

And the Kidneys uptake (3 h post-injection)?
Its Kidneys uptake is 56.1 ± 20.3 % ID/g.

What about the Lacrimal uptake (3 h post-injection) of the same molecule?
Its Lacrimal uptake is 0.00 ± 0.00 % ID/g.

And the Liver uptake (3 h post-injection)?
Its Liver uptake is 0.31 ± 0.19 % ID/g.

What about the Lungs uptake (3 h post-injection) of the same molecule?
Its Lungs uptake is 0.53 ± 0.12 % ID/g.

What about the Muscle uptake (3 h post-injection) of the same molecule?
Its Muscle uptake is 0.08 ± 0.02 % ID/g.

What about the Pancreas uptake (3 h post-injection) of the same molecule?
Its Pancreas uptake is 0.14 ± 0.03 % ID/g.

And the Salivary uptake (3 h post-injection)?
Its Salivary uptake is 0.47 ± 0.07 % ID/g.

What about the Seminal uptake (3 h post-injection) of the same molecule?
The Seminal uptake was 1.44 ± 3.04 % ID/g.

What about the Spleen uptake (3 h post-injection) of the same molecule?
Its Spleen uptake is 0.80 ± 0.31 % ID/g.

What about the Stomach uptake (3 h post-injection) of the same molecule?
The Stomach uptake was 0.07 ± 0.04 % ID/g.

And the Tail uptake (3 h post-injection)?
Its Tail uptake is 0.27 ± 0.05 % ID/g.

What about the Testes uptake (3 h post-injection) of the same molecule?
Its Testes uptake is 0.17 ± 0.05 % ID/g.

And the Thyroid uptake (3 h post-injection)?
Its Thyroid uptake is 0.24 ± 0.05 % ID/g.

What about the Tumor uptake (3 h post-injection) of the same molecule?
The Tumor uptake was 20.4 ± 5.92 % ID/g.

And the “Tumor:Blood ratio” value (3 h post-injection)?
Its value is 39.2 ± 8.42.

What about the “Tumor:Muscle ratio” value (3 h post-injection) of the same molecule?
The value was 254 ± 88.9.

What about the “Tumor:kidney ratio” value (3 h post-injection) of the same molecule?
Its value is 0.40 ± 0.16.

What about the Urine uptake (3 h post-injection) of the same molecule?
Its Urine uptake is 339 ± 355 % ID/g.

From patent US20200339625A1, “NOVEL RADIOMETAL-BINDING COMPOUNDS FOR DIAGNOSIS OR TREATMENT OF PROSTATE SPECIFIC MEMBRANE ANTIGEN-EXPRESSING CANCER” (PROVINCIAL HEALTH SERVICES AUTHORITY, priority 2017, published 2020)
